Source: ChEMBL document CHEMBL1201862, “PubChem BioAssay data set” (2004)
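Protocol summary: plate cells (96-well), add compound at 5 concentrations, incubate 48 h, interpolate endpoints linearly. GI50: concentration for 50% inhibition of growth.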 Active and inactive are the calls of the source. Cut-off read from the data, not from the text of the source: active = GI50 up to about 1.1 µM and inactive = higher.

How the values were obtained:
Assay in all cases: NCI tumour cell line growth inhibition, 48 h
CAKI-1 = test system: CAKI-1
MDA-MB-435 = test system: MDA-MB-435
HOP-62 = test system: HOP-62
PC-3 = test system: PC-3
MDA-N = test system: MDA-N
SF-295 = test system: SF-295
UACC-62 = test system: UACC-62
TK-10 = test system: TK-10
SK-MEL-28 = test system: SK-MEL-28
NCI-H23 = test system: NCI-H23
RXF 393 = test system: RXF 393
NCI/ADR-RES = test system: NCI/ADR-RES
NCI-H226 = test system: NCI-H226
EKVX = test system: EKVX
SN12C = test system: SN12C
HCT-15 = test system: HCT-15
UACC-257 = test system: UACC-257
MDA-MB-231 = test system: MDA-MB-231
OVCAR-3 = test system: OVCAR-3
SK-OV-3 = test system: SK-OV-3

Compound | GI50 (CAKI-1) | GI50 (MDA-MB-435) | GI50 (HOP-62) | GI50 (PC-3) | GI50 (MDA-N) | GI50 (SF-295) | GI50 (UACC-62) | GI50 (TK-10) | GI50 (SK-MEL-28) | GI50 (NCI-H23) | GI50 (RXF 393) | GI50 (NCI/ADR-RES) | GI50 (NCI-H226) | GI50 (EKVX) | GI50 (SN12C) | GI50 (HCT-15) [µM] | GI50 (UACC-257) | GI50 (MDA-MB-231) | GI50 (OVCAR-3) | GI50 (SK-OV-3)
COc1cc2c3c(n(Cc4ccccc4)c(=O)c2cc1OC)-c1ccccc1C3=O | 92.9 µM (inactive) | > 100 µM (inactive) | > 100 µM (inactive) | > 100 µM (inactive) | > 100 µM (inactive) | > 100 µM (inactive) | > 100 µM (inactive) | > 100 µM (inactive) | > 100 µM (inactive) | > 100 µM (inactive) | > 100 µM (inactive) | > 100 µM (inactive) | > 100 µM (inactive) | > 100 µM (inactive) | 57.1 µM (inactive) | > 100 | > 100 µM (inactive) | > 100 µM (inactive) | > 100 µM (inactive) | –
Cc1cc(C)c2c(n1)S(=O)(=O)N(CCCN1CCN(c3cccc(Cl)c3)CC1)C(C(=O)c1ccccc1)=C2O | 12.9 µM (inactive) | 27 µM (inactive) | 36.6 µM (inactive) | 30.8 µM (inactive) | 25.9 µM (inactive) | 31.8 µM (inactive) | 36.1 µM (inactive) | 27 µM (inactive) | 44.4 µM (inactive) | 28.4 µM (inactive) | – | 20.6 µM (inactive) | – | 26 µM (inactive) | 20 µM (inactive) | 24.8 | 19.3 µM (inactive) | 44.1 µM (inactive) | 22.8 µM (inactive) | 33.7 µM (inactive)
O=C(c1ccco1)N(C(=O)N1CCCCC1)c1ccccc1 | > 100 µM (inactive) | > 100 µM (inactive) | – | > 100 µM (inactive) | > 100 µM (inactive) | – | > 100 µM (inactive) | > 100 µM (inactive) | > 100 µM (inactive) | > 100 µM (inactive) | 87.9 µM (inactive) | > 100 µM (inactive) | > 100 µM (inactive) | > 100 µM (inactive) | > 100 µM (inactive) | > 100 | > 100 µM (inactive) | > 100 µM (inactive) | > 100 µM (inactive) | > 100 µM (inactive)
CC(C)(C)OC(=O)N1CCCC1=O | – | > 10 µM (inactive) | > 10 µM (inactive) | > 10 µM (inactive) | > 10 µM (inactive) | > 10 µM (inactive) | > 10 µM (inactive) | > 10 µM (inactive) | > 10 µM (inactive) | > 10 µM (inactive) | > 10 µM (inactive) | – | > 10 µM (inactive) | > 10 µM (inactive) | > 10 µM (inactive) | > 10 | > 10 µM (inactive) | > 10 µM (inactive) | > 10 µM (inactive) | > 10 µM (inactive)
COc1ccc(C2=Cc3nc2c(-c2ccccc2)c2ccc([nH]2)c(-c2ccccc2)c2nc(c(-c4ccccc4)c4ccc([nH]4)c3-c3ccccc3)C=C2)cc1 | > 100 µM (inactive) | > 100 µM (inactive) | > 100 µM (inactive) | > 100 µM (inactive) | > 100 µM (inactive) | > 100 µM (inactive) | > 100 µM (inactive) | > 100 µM (inactive) | > 100 µM (inactive) | > 100 µM (inactive) | > 100 µM (inactive) | – | > 100 µM (inactive) | > 100 µM (inactive) | > 100 µM (inactive) | > 100 | – | > 100 µM (inactive) | > 100 µM (inactive) | > 100 µM (inactive)
Cn1c([C@H](C#N)C(=O)c2cc(O)ccc2[N+](=O)[O-])nc2ccccc21 | > 100 µM (inactive) | 9.51 µM (inactive) | > 100 µM (inactive) | > 100 µM (inactive) | > 100 µM (inactive) | > 100 µM (inactive) | > 100 µM (inactive) | > 100 µM (inactive) | > 100 µM (inactive) | > 100 µM (inactive) | – | > 100 µM (inactive) | – | > 100 µM (inactive) | > 100 µM (inactive) | > 100 | > 100 µM (inactive) | > 100 µM (inactive) | > 100 µM (inactive) | –
O=c1ccn([C@@H]2C[C@@H]2CO)c(=O)[nH]1 | > 100 µM (inactive) | > 100 µM (inactive) | > 100 µM (inactive) | > 100 µM (inactive) | > 100 µM (inactive) | – | > 100 µM (inactive) | > 100 µM (inactive) | > 100 µM (inactive) | > 100 µM (inactive) | > 100 µM (inactive) | > 100 µM (inactive) | > 100 µM (inactive) | > 100 µM (inactive) | > 100 µM (inactive) | > 100 | > 100 µM (inactive) | – | – | –
COC(=O)[C@@H]1CN(C(=O)c2ccccc2)C(=O)N1 | > 10 µM (inactive) | > 100 µM (inactive) | > 100 µM (inactive) | > 100 µM (inactive) | > 100 µM (inactive) | > 100 µM (inactive) | > 100 µM (inactive) | > 100 µM (inactive) | > 100 µM (inactive) | > 100 µM (inactive) | > 100 µM (inactive) | > 100 µM (inactive) | > 100 µM (inactive) | > 100 µM (inactive) | > 100 µM (inactive) | – | > 100 µM (inactive) | > 100 µM (inactive) | > 100 µM (inactive) | –
